Each molecule was assayed against T1, human transferrin receptor (hTfR) (Homo sapiens, UniProt P02786) (assay: Evaluation of molecular interaction between transferrin receptor (hTfR) and peptide using surface plasmon resonance (SPR)). Details: surface plasmon resonance, binding to hTfR; KD class symbol; read-out: SPR (KD value).
T1 construct: made in house
Type: binding
Method in brief: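 Recombinant hTfR dimer (0.5 μM) immobilized on Ni-loaded NTA chip via EDC/NHS, ethanolamine-capped. Peptides at 5–100 nM in HEPES pH 8.0 buffer with 150 mM NaCl, 0.05% Tween 20, 0.1% BSA, 1.0% DMSO, flowed by single-cycle kinetics; KD from least-squares fit of sensorgrams.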

T1 sequence (P02786 89-760 limits assumed): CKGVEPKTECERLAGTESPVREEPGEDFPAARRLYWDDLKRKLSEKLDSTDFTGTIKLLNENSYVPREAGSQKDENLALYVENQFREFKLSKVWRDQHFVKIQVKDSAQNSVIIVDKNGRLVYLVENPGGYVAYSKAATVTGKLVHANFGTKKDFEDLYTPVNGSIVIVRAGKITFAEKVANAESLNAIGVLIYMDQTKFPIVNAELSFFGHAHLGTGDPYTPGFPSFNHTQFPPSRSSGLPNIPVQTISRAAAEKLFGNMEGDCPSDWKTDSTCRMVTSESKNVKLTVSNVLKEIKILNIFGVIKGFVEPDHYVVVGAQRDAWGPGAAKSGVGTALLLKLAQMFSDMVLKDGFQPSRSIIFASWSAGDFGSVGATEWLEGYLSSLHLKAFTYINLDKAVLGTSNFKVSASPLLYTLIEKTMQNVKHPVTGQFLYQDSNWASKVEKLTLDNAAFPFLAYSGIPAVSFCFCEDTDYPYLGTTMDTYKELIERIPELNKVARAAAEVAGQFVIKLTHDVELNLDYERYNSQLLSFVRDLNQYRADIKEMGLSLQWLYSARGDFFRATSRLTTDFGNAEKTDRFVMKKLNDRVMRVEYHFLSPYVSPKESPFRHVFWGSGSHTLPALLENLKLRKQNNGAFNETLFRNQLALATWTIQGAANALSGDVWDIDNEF

**Q.** `CC[C@H](C)[C@@H]1NC(=O)[C@H](Cc2ccc(O)cc2)NC(=O)[C@H](Cc2ccc(O)cc2)NC(=O)[C@H](CC(N)=O)NC(=O)[C@H](Cc2c[nH]c3ccccc23)NC(=O)[C@H](C(C)C)NC(=O)[C@H](Cc2ccccc2)N(C)C(=O)[C@H](C(C)C)NC(=O)[C@H](C)NC(=O)CSC[C@@H](C(N)=O)NC(=O)[C@H](Cc2ccc(O)cc2)N(C)C(=O)[C@H](Cc2ccccc2)NC(=O)[C@H](CCCNC(=N)N)NC(=O)[C@H](CCCCNC(=O)CCOCCOCCOCCOC)NC(=O)[C@H]([C@@H](C)CC)NC1=O` [compound 1] was tested. Which Kd did it give?
**A.** Its Kd is 1 to 100 nM.

**Q.** How did the Kd turn out when `CC[C@H](C)[C@@H]1NC(=O)[C@H](Cc2ccc(O)cc2)NC(=O)[C@H](Cc2ccc(O)cc2)NC(=O)[C@H](CC(N)=O)NC(=O)[C@H](Cc2c[nH]c3ccccc23)NC(=O)[C@H](C(C)C)NC(=O)[C@H](Cc2ccccc2)N(C)C(=O)[C@H](C(C)C)NC(=O)[C@H](C)NC(=O)CSC[C@@H](C(N)=O)NC(=O)[C@H](Cc2ccc(O)cc2)N(C)C(=O)[C@H](Cc2ccccc2)NC(=O)[C@H](CCCCNC(=O)CCOCCOCCOCCOC)NC(=O)[C@H](CCCNC(=N)N)NC(=O)[C@H]([C@@H](C)CC)NC1=O` [compound 2] was run?
**A.** The Kd was 1 to 100 nM.

**Q.** How did the Kd turn out when `CC[C@H](C)[C@@H]1NC(=O)[C@H](Cc2ccc(O)cc2)NC(=O)[C@H](Cc2ccc(O)cc2)NC(=O)[C@H](CC(N)=O)NC(=O)[C@H](Cc2c[nH]c3ccc(Cl)cc23)NC(=O)[C@H](C(C)C)NC(=O)[C@H](Cc2ccc(F)cc2)N(C)C(=O)[C@H](C(C)C)NC(=O)[C@H](C)NC(=O)CSC[C@@H](C(N)=O)NC(=O)[C@H](Cc2ccc(O)cc2)N(C)C(=O)[C@H](Cc2ccccc2)NC(=O)[C@H](CCCCNC(=O)CCOCCOCCOCCOC)NC(=O)[C@H](CCCNC(=N)N)N(C)C(=O)[C@H]([C@@H](C)CC)NC1=O` [compound 3] was run?
**A.** The Kd was 1 to 100 nM.

**Q.** `CC[C@H](C)[C@@H]1NC(=O)[C@H](Cc2ccc(OC)cc2)NC(=O)[C@H](Cc2ccc(O)cc2)NC(=O)[C@H](CC(N)=O)NC(=O)[C@H](Cc2c[nH]c3ccc(Cl)cc23)NC(=O)[C@H](C(C)C)NC(=O)[C@H](Cc2ccc(F)cc2)N(C)C(=O)[C@H](C(C)C)NC(=O)[C@H](C)NC(=O)CSC[C@@H](C(N)=O)NC(=O)[C@H](Cc2ccc(O)cc2)N(C)C(=O)[C@H](Cc2ccccc2)NC(=O)[C@H](CCCCNC(=O)CCOCCOCCOCCOC)NC(=O)[C@H](CCCNC(=N)N)N(C)C(=O)[C@H]([C@@H](C)CC)NC1=O` [compound 4] was tested. Which Kd did it give?
**A.** The Kd was 1 to 100 nM.

**Q.** How did the Kd turn out when `CC[C@H](C)[C@@H]1NC(=O)[C@H](Cc2ccc(O)cc2)NC(=O)[C@H](Cc2ccc(O)cc2)NC(=O)[C@H](CC(N)=O)NC(=O)[C@H](Cc2c[nH]c3ccccc23)N(C)C(=O)[C@H](C(C)C)NC(=O)[C@H](Cc2ccc(F)cc2)N(C)C(=O)[C@H](C(C)C)NC(=O)[C@H](C)NC(=O)CSC[C@@H](C(N)=O)NC(=O)[C@H](Cc2ccc(O)cc2)N(C)C(=O)[C@H](Cc2ccccc2)NC(=O)[C@@H](CCCNC(=N)N)NC(=O)[C@H](CCCCNC(=O)CCOCCOCCOCCOC)NC(=O)[C@H]([C@@H](C)CC)NC1=O` [compound 5] was run?
**A.** Its Kd is 1 to 100 nM.

**Q.** With `CC[C@H](C)[C@@H]1NC(=O)[C@H](Cc2ccc(OC)cc2)NC(=O)[C@H](Cc2ccc(O)cc2)NC(=O)[C@H](CC(N)=O)NC(=O)[C@H](Cc2c[nH]c3ccccc23)N(C)C(=O)[C@H](C(C)C)NC(=O)[C@H](Cc2ccc(F)cc2)N(C)C(=O)[C@H](C(C)C)NC(=O)[C@H](C)NC(=O)CSC[C@@H](C(N)=O)NC(=O)[C@H](Cc2ccc(O)cc2)N(C)C(=O)[C@H](Cc2ccccc2)NC(=O)[C@@H](CCCNC(=N)N)NC(=O)[C@H](CCCCNC(=O)CCOCCOCCOCCOC)NC(=O)[C@H]([C@@H](C)CC)NC1=O` [compound 6] as the molecule, how does the Kd read?
**A.** Its Kd is 1 to 100 nM.

**Q.** Which Kd does the source give for `CC[C@H](C)[C@@H]1NC(=O)[C@H](Cc2ccc(O)cc2)NC(=O)[C@H](Cc2ccc(O)cc2)NC(=O)[C@H](CC(N)=O)NC(=O)[C@H](Cc2c[nH]c3ccccc23)N(C)C(=O)[C@H](C(C)C)NC(=O)[C@H](Cc2ccc(F)cc2)N(C)C(=O)[C@H](C(C)C)NC(=O)[C@H](C)NC(=O)CSC[C@@H](C(N)=O)NC(=O)[C@H](Cc2ccc(O)cc2)N(C)C(=O)[C@H](Cc2ccccc2)NC(=O)[C@H](CCCCNC(=O)CCOCCOCCOCCOC)NC(=O)[C@H](CCCNC(=N)N)N(C)C(=O)[C@H]([C@@H](C)CC)NC1=O` [compound 7] here?
**A.** The Kd was 1 to 100 nM.

**Q.** `CC[C@H](C)[C@@H]1NC(=O)[C@H](Cc2ccc(OC)cc2)NC(=O)[C@H](Cc2ccc(O)cc2)NC(=O)[C@H](CC(N)=O)NC(=O)[C@H](Cc2c[nH]c3ccccc23)N(C)C(=O)[C@H](C(C)C)NC(=O)[C@H](Cc2ccc(F)cc2)N(C)C(=O)[C@H](C(C)C)NC(=O)[C@H](C)NC(=O)CSC[C@@H](C(N)=O)NC(=O)[C@H](Cc2ccc(O)cc2)N(C)C(=O)[C@H](Cc2ccccc2)NC(=O)[C@H](CCCCNC(=O)CCOCCOCCOCCOC)NC(=O)[C@H](CCCNC(=N)N)N(C)C(=O)[C@H]([C@@H](C)CC)NC1=O` [compound 8] was tested. Which Kd did it give?
**A.** Its Kd is 1 to 100 nM.

**Q.** For `CC[C@H](C)[C@@H]1NC(=O)[C@H](Cc2ccc(O)cc2)NC(=O)[C@H](Cc2ccc(O)cc2)NC(=O)[C@H](CC(=O)N(C)C)NC(=O)[C@H](Cc2c[nH]c3ccccc23)NC(=O)[C@H](C(C)C)NC(=O)[C@H](Cc2ccccc2)N(C)C(=O)[C@H](C(C)C)NC(=O)[C@H](C)NC(=O)CSC[C@@H](C(N)=O)NC(=O)[C@H](Cc2ccc(O)cc2)N(C)C(=O)[C@H](Cc2ccc(O)cc2)NC(=O)[C@H](CCCNC(=N)N)NC(=O)[C@H](CCCNC(=N)N)NC(=O)[C@H]([C@@H](C)CC)NC1=O` [compound 9], which Kd is on record?
**A.** Its Kd is 100 to 1000 nM.

**Q.** `CC[C@H](C)[C@@H]1NC(=O)[C@H](Cc2ccc(OC)cc2)NC(=O)[C@H](Cc2ccc(O)cc2)NC(=O)[C@H](CC(N)=O)NC(=O)[C@H](Cc2c[nH]c3ccccc23)N(C)C(=O)[C@H](C(C)C)NC(=O)[C@H](Cc2cccc(Cl)c2)N(C)C(=O)[C@H](C(C)C)NC(=O)[C@H](C)N(C)C(=O)CSC[C@@H](C(=O)NCCOCCOCCOCCOCCC(N)=O)NC(=O)[C@H](Cc2ccc(O)cc2)N(C)C(=O)[C@H](Cc2ccccc2)NC(=O)[C@@H](C)NC(=O)[C@H](CCCNC(=N)N)NC(=O)[C@H]([C@@H](C)CC)NC1=O` [compound 10] was tested. Which Kd did it give?
**A.** The Kd was 1 to 100 nM.

**Q.** `CC[C@H](C)[C@@H]1NC(=O)[C@H](Cc2ccc(OC)cc2)NC(=O)[C@H](Cc2ccc(O)cc2)NC(=O)[C@H](CC(N)=O)NC(=O)[C@H](Cc2c[nH]c3ccccc23)NC(=O)[C@H](C(C)C)NC(=O)[C@H](Cc2cccc(Cl)c2)N(C)C(=O)[C@H](C(C)C)NC(=O)[C@H](C)NC(=O)CSC[C@@H](C(=O)NCC(=O)N[C@@H](CCCCN=[N+]=[N-])C(N)=O)NC(=O)[C@H](Cc2ccc(O)cc2)N(C)C(=O)[C@H](Cc2ccccc2)NC(=O)[C@H](CCCNC(=N)N)NC(=O)[C@H](CCCNC(=N)N)NC(=O)[C@H]([C@@H](C)CC)NC1=O` [compound 11] was tested. Which Kd did it give?
**A.** Its Kd is 1 to 100 nM.

**Q.** Which Kd does the source give for `CC[C@H](C)[C@@H]1NC(=O)[C@H](Cc2ccc(OC)cc2)NC(=O)[C@H](Cc2ccc(O)cc2)NC(=O)[C@H](CC(N)=O)NC(=O)[C@H](Cc2c[nH]c3ccccc23)NC(=O)[C@H](C(C)C)NC(=O)[C@H](Cc2cccc(Cl)c2)N(C)C(=O)[C@H](C(C)C)NC(=O)[C@H](C)NC(=O)CSC[C@@H](C(=O)NCC(=O)N[C@@H](CCCCN=[N+]=[N-])C(N)=O)NC(=O)[C@H](Cc2ccc(O)cc2)N(C)C(=O)[C@H](Cc2ccccc2)NC(=O)[C@H](CCCNC(=N)N)NC(=O)[C@H](CCCCN)NC(=O)[C@H]([C@@H](C)CC)NC1=O` [compound 12] here?
**A.** The Kd was 1 to 100 nM.

— patent publication US20260116920A1, “HUMAN TRANSFERRIN RECEPTOR BINDING PEPTIDE” (PEPTIDREAM INC., priority 2021, published 2026)
